Measured values: patent EP1849784A1, “Indoline-substituted pyrazoline compounds, their preparation and use as medicaments” (LABORATORIOS DEL DR. ESTEVE, S.A., priority 2006, dated 2007)

Assays:
[1] = test system: cannabinoid receptors; test: Mouse tetrad model, antagonistic effect against Win 55212-2; assay type: in vivo, Male NMRI mice; conditions: for Antagonistic Effect in (%): against Win 55212-2 (1.25 mg/kg intravenous), substance injected 5 minutes before, tetrad parameter not specified; for Antagonism (%): summary table 1
Excerpt: Substances with affinity for cannabinoid receptors are known to produce a wide range of pharmacological effects. It is also known that intravenous administration of a substance with affinity for cannabinoid receptors in mice produces analgesia , hypothermia, sedation and catalepsy. Individually, none of these effects can be considered as proof that a tested substance has affinity for cannabinoid-receptors, since all of these effects are common for various classes of centrally active agents. However, substances, which show all of these effects, i.e. substances that are active in this so-called tetrad model are considered to have affinity for the cannabinoid receptors. It has further been shown that cannabinoid receptor antagonists are higly effective in blocking the effects of a cannabinoid agonist in the mouse tetrad model.
The tetrad model is described, for example, in the publication of A. C. Howlett et al, International Union of Pharmacology XXVII. Classification of Cannabinoid Receptors, Pharmacol Rev 54,161-202, 2002 and David R. Compton et al., "In-vivo Characterization of a Specific Cannabinoid Receptor Antagonist (SR141716A) :Inhibition of Tetrahydrocannbinol- induced Responses and Apparent Agonist Activity", J. Pharmacol. Exp. Ther. 277 , 2, 586-594, 1996. The corresponding parts of the description are hereby incorporated by reference.
Male NMRI mice with a weight of 20-30 g (Harlan, Barcelona, Spain) are used in all of the following experiments.
Before testing in the behavioral procedures given below, mice are acclimatized to the experimental setting. Pre-Treatment control values are determined for analgesia hot plate latency (in seconds), rectal temperature, sedation and catalepsy.
In order to determine the agonistic activty of the substance to be tested, the mice are injected intravenously with the substance to be tested or the vehicle alone. 15 minutes after injection, latency in hot plate analgesia is measured. Rectal temperature, sedation and catalepsy are measured 20 minutes after injection.
In order to determine the antagonistic activity the identical procedure is used as for the determination of the agonistic effects, but with the difference that the substance to be evaluated for its antagonistic activity is injectected 5 minutes before the intravenous injection of 1.25 mg/kg Win-55,212 a known cannabinoid-receptor agonist.
The hot plate analgesia is determined according to the method described in Woolfe D. et al. "The evaluation of analgesic action of pethidine hydrochloride (Demerol)", J. Pharmacol. Exp. Ther. 80, 300-307,1944. The respective description is hereby incorporated by reference and forms part of the present disclosure.
The mice are placed on a hot plate (Harvard Analgesimeter) at 55 ± 0.5 °C until they show a painful sensation by licking their paws or jumping and the time for these sensations to occur is recorded. This reading is considered the basal value (B). The maximum time limit the mice are allowed to remain on the hot plate in absence of any painful response is 40 seconds in order to prevent skin damage. This period is called the cut-off time (PC).
Fifteen minuts after the administration of the substance to be tested, the mice are again placed on the hot plate and the afore described procedure is repeated. This period is called the post-treatment reading (PT).
The degree of analgesia is calculated from the formula: % MPE of Analgesia = (PT-B)/(PC-B) × 100 [formula] MPE = Maximum possible effect.
Sedation and ataxia is determined according to the method described in Desmet L. K. C. et al. "Anticonvulsive properties of Cinarizine and Flunarizine in Rats and Mice", Arzneim. -Forsch. (Frug Res) 25, 9, 1975. The respective description is hereby incorporated by reference and forms part of the present disclosure.
The chosen scoring system is • 0: no ataxia; • 1: doubful; • 2: obvious calmness and quiet; • 3 pronounced ataxia; prior to as well as after treatment. […]

[2] = molecular target: T1, CB1-Receptor (Homo sapiens, UniProt P21554); test: In-vitro determination of affinity to CB1-Receptor (radioligand binding); conditions: transfected human CB1 receptors; radioligand [^3H]-CP55940; read-out: CB1-Receptor Radiologand:[^3H]-CP55940 IC50
T1 construct: purchased Receptor Biology, Inc
T1 sequence (P21554 whole entry): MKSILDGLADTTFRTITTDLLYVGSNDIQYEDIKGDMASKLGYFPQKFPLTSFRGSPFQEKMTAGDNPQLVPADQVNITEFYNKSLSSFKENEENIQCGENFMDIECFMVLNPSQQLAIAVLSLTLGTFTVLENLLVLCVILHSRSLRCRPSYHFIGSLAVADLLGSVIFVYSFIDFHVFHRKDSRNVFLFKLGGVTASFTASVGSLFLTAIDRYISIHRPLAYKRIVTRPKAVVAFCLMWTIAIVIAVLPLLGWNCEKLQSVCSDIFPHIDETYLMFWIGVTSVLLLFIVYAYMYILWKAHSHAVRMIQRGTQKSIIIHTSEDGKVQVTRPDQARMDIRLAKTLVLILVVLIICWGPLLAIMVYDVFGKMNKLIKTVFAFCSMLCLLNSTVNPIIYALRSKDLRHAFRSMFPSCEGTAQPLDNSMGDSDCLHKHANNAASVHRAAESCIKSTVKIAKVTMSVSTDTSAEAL
Description: The in-vitro determination of the affinity of the inventive quaternary ammonium salts of substituted pyrazoline compounds to CB1/CB2Rezeptors is carried out as described in the publication of Ruth A. Ross, Heather C. Brockie et al., "Agonist-inverse agonist characterization at CB1 and CB2 cannabinoid receptors of L-759633, L759656 and AM630", British Journal of Pharmacology, 126, 665-672, (1999), whereby the transfected human CB1 and CB2 receptors of Receptor Biology, Inc. are used. The radioligand used for both receptors is [^3H]-CP55940. The respective parts of the description are hereby incorporated by reference and forms part of the present disclosure.

| SMILES | Antagonistic Effect in (%) [1] [%] | Antagonism (%) [1] [%] | IC50 [2] [nM] |
| --- | --- | --- | --- |
| O=C(NN1CCc2ccccc21)C1=NN(c2ccc(Cl)cc2Cl)C(c2ccc(Br)cc2)C1 (stereo not shown) [Example 6, 5-(4-bromophenyl)-1-(2,4-dichlorophenyl)-N-(indolin-1-yl)-4,5-dihydro-1H-pyrazole-3-carboxamide] | 88 ± 10 | 88 ± 10 |  |
| O=C(NN1CCc2ccccc21)C1=NN(c2ccc(Cl)cc2Cl)C(c2ccc(Cl)cc2)C1 (stereo not shown) [Example 2, 5-(4-chlorophenyl)-1-(2,4-dichlorophenyl)-N-(indolin-1-yl)-4,5-dihydro-1H-pyrazole-3-carboxamide] | 65±15 | 65 ± 15 | 100 |
| CC1Cc2ccccc2N1NC(=O)C1=NN(c2ccc(Cl)cc2Cl)C(c2ccc(Cl)cc2)C1 (stereo not shown) [Example 1, 5-(4-chlorophenyl)-1-(2,4-dichlorophenyl)-N-(2-methylindolin-1-yl)-4,5-dihydro-1H-pyrazole-3-carboxamide] | 33 | 33 |  |
